Reference: PubChem BioAssay (NCI)
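Five concentrations, 48 hours, 96-well plates. At the GI50, growth is halved. The concentration for full growth arrest is given as TGI.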

Tests used:
Assay in all cases: inhibition of tumour cell growth, NCI panel, 48 h
[1] = test system: UACC-257 melanoma
[2] = test system: SF-268 CNS
[3] = test system: HOP-62 NSCLC
[4] = test system: NCI/ADR-RES ovarian
[5] = test system: KM12 colon
[6] = test system: 786-0 renal
[7] = test system: SK-MEL-2 melanoma
[8] = test system: OVCAR-5 ovarian
[9] = test system: RPMI-8226 leukemia
[10] = test system: T-47D breast

Compound | GI50 [1] [µM] | TGI [1] [µM] | GI50 [2] [µM] | TGI [2] [µM] | GI50 [3] [µM] | TGI [3] [µM] | GI50 [4] [µM] | TGI [4] [µM] | GI50 [5] [µM] | TGI [5] [µM] | GI50 [6] [µM] | TGI [6] [µM] | GI50 [7] [µM] | TGI [7] [µM] | GI50 [8] [µM] | TGI [8] [µM] | GI50 [9] [µM] | TGI [9] [µM] | GI50 [10] [µM] | TGI [10] [µM]
N#CC1=C(N)Oc2c(ccc3ccccc23)C1c1ccccc1 (centres undefined) | 11.9 | 29.9 | 0.166 | 15.7 | 0.0555 | 18.6 | 0.0274 | 1.68 | 0.0419 | 13.5 | 0.0503 | 13 | 0.0517 | 12.6 | 0.172 | 17.2 | 0.0417 | 15 | – | –
CC(=O)CC(N)=O | – | > 100 | – | > 100 | – | > 100 | – | – | – | > 100 | – | > 100 | – | > 100 | – | > 100 | – | > 100 | – | –
CC(=Nc1ccccc1)C1=C(O)C(Cc2ccc(O)cc2)NC1=O (centres undefined) | > 100 | > 100 | 0.117 | > 80.2 | 0.106 | 2.46 | 0.0572 | 0.793 | 0.0472 | 1.31 | 0.505 | > 100 | 0.206 | > 100 | 0.548 | > 100 | 0.169 | > 100 | – | –
O=C(Nc1ccc(Cl)cc1Cl)C1C(=O)C(=O)N(c2ccc(Cl)cc2Cl)C1=O (centres undefined) | – | > 100 | – | > 100 | – | > 100 | – | – | – | > 100 | – | > 100 | – | – | – | > 100 | – | – | – | –
CCOC(=O)Cc1ccc2c(c1O)C(=O)c1c(ccc(CC(=O)OCC)c1O)C2=O | – | > 100 | – | > 100 | – | > 100 | – | – | – | > 100 | – | > 100 | – | > 100 | – | > 100 | – | > 100 | – | –
CC1=C(C(=O)Nc2cc(=O)n(C)c(=O)n2C)C(c2cccc([N+](=O)[O-])c2)C(C(=O)Nc2cc(=O)n(C)c(=O)n2C)=C(C)N1 | – | > 100 | – | > 100 | – | > 100 | – | – | – | > 100 | – | > 100 | – | > 100 | – | > 100 | – | > 100 | – | –
O=C(O)c1ccc(Oc2nccc(-c3c(-c4ccc(F)cc4)ncn3C3CCNCC3)n2)cc1 | – | – | > 25 | > 25 | > 25 | > 25 | > 25 | > 25 | > 25 | > 25 | > 25 | > 25 | > 25 | > 25 | > 25 | > 25 | > 25 | > 25 | > 25 | > 25
CC(C)(C)CC(C)(C)c1cc2c(O)c(c1)Cc1cc(C(C)(C)CC(C)(C)C)cc(c1O)Cc1cc(C(C)(C)CC(C)(C)C)cc(c1O)Cc1cc(C(C)(C)CC(C)(C)C)cc(c1O)Cc1cc(C(C)(C)CC(C)(C)C)cc(c1O)C2 | – | > 100 | – | > 100 | – | > 100 | – | – | – | > 100 | – | > 100 | – | > 100 | – | > 100 | – | > 100 | – | –
C=C(C#N)C1OCC2OC(C)(C)OC21 (centres undefined) | – | 30 | – | 52.5 | – | > 100 | – | – | – | > 100 | – | 39.4 | – | 77.2 | – | 33.9 | – | – | – | –
CCOc1ccc(N=Cc2ccc3cc(C)ccc3n2)cc1 | – | > 100 | – | > 100 | – | > 100 | – | – | – | > 100 | – | > 100 | – | > 100 | – | > 100 | – | 57.3 | – | –
Cc1ccc(NC2=C(Cl)C(=O)N(Cc3ccc(Cl)cc3)C2=O)cc1O | 13 | 28.7 | 5.07 | 21.2 | 9.99 | 26.4 | 9.24 | 37.8 | 13.8 | 39.6 | 0.753 | 18.8 | 10.7 | 26.7 | – | – | 2.04 | 14.8 | 10.7 | 42.6
Cc1cc(-c2nc3sccn3c2/C=N/N=C(N)N)c(C)s1 | 18.9 | 36.2 | 16.6 | 31.7 | 17.4 | 32.1 | 17.4 | 31.6 | 13.3 | 26.1 | 15.7 | 29.1 | – | – | 14 | 26.9 | 13.3 | 33.2 | 17.5 | 32.8
COc1cc(-c2ccc(-c3ccc(C(=N)N)nc3)s2)cc(OC)c1OC | 2.15 | 4.07 | 14.6 | 33.2 | 2.79 | 11.5 | 5.2 | 24.1 | 2.78 | 10.5 | 2.12 | 3.93 | 2.09 | 4.35 | 2.1 | 5.38 | 1.67 | 3.97 | – | –
O=C(CCc1nnc2s/c(=C\c3ccc(Cl)c(Cl)c3)c(=O)n12)Nc1ccc(Cl)c(Cl)c1 | – | > 100 | – | > 100 | – | > 100 | – | – | – | > 100 | – | > 100 | – | – | – | > 100 | – | 62.2 | – | –
O=C(O)Cc1cc(=O)[nH]c2c1/C(=N/O)CCC2 | – | > 100 | – | > 100 | – | – | – | – | – | > 100 | – | > 100 | – | > 100 | – | > 100 | – | > 100 | – | –
C#CCOCn1cnc2c(Sc3c([N+](=O)[O-])ncn3C)ncnc21 | – | > 100 | – | > 100 | – | > 100 | – | – | – | > 100 | – | > 100 | – | > 100 | – | > 100 | – | > 100 | – | –
C[C@]12CCC(=O)C(O)=C1CC[C@@H]1C2CC[C@]2(C)NC(=O)CCC12 (some centres undefined) | – | > 100 | – | > 100 | – | > 100 | – | – | – | > 100 | – | > 100 | – | > 100 | – | > 100 | – | > 100 | – | –
COC(=O)C1=C(O)c2cc(-c3ccccc3)c(-c3ccccc3)c(C#N)c2NC(=O)C1 | – | > 100 | – | – | – | 96.8 | – | – | – | > 100 | – | > 100 | – | > 100 | – | – | – | – | – | –
O=C1O[C@H](c2ccccc2)[C@@H]2CC3(CCN12)OCCO3 | – | > 100 | – | > 100 | – | > 100 | – | – | – | > 100 | – | > 100 | – | > 100 | – | > 100 | – | > 100 | – | –
